# Source: DBAASP
# Legend:
# Test in all cases: ≥ marks a high value that may be exact or a test limit, other limits are often not marked, values filed in µg/mL are converted to µM
# Acinetobacter baumannii = system: Acinetobacter baumannii
# [1] = system: Escherichia coli ATCC 25922
# [2] = system: Klebsiella pneumoniae ATCC 700603
# [3] = system: Pseudomonas aeruginosa ATCC 9027
# [4] = system: Staphylococcus aureus ATCC 25923
# [5] = system: Acinetobacter baumannii ATCC 19606
# Bacillus subtilis 168 = system: Bacillus subtilis 168
# [6] = system: Bacillus subtilis ATCC 23857
# [7] = system: Escherichia coli DH5alpha
# [8] = system: Pseudomonas aeruginosa ATCC 27853
# Escherichia coli B = system: Escherichia coli B
# Pseudomonas aeruginosa = system: Pseudomonas aeruginosa
# Staphylococcus aureus = system: Staphylococcus aureus
# [9] = system: Enterococcus faecalis ATCC 29212
# [10] = system: Staphylococcus epidermidis ATCC 12228
# [11] = system: Candida albicans ATCC 10231
Compound,MIC [1] [µM],MIC [4] [µM],MIC (Bacillus subtilis 168) [µM],MIC [6] [µM],MIC (Escherichia coli B) [µM],MIC (Pseudomonas aeruginosa) [µM],MIC (Staphylococcus aureus) [µM],further results
CC[C@H](C)[C@H](NC(=O)[C@H](C)N)C(=O)N[C@@H](CC(C)C)C(=O)N[C@@H](CCCN=C(N)N)C(=O)N[C@@H](CCCCN)C(=O)N[C@@H](C)C(=O)N[C@H](C(=O)N[C@@H](CCCN=C(N)N)C(=O)N[C@@H](CCCN=C(N)N)C(=O)N[C@@H](CC(C)C)C(=O)N[C@H](C(=O)N[C@@H](CCC(N)=O)C(=O)N[C@@H](CC(C)C)C(=O)N[C@H](C(=O)N[C@H](C(=O)N[C@@H](CO)C(=O)NCC(=O)O)C(C)C)[C@@H](C)CC)C(C)C)[C@@H](C)O [AILRKATRRLVQLIVSG],> 25,> 25,,,,,,MIC (Acinetobacter baumannii): 25 µM; MIC [2]: > 25 µM; MIC [3]: > 25 µM
CC[C@H](C)[C@H](NC(=O)CN)C(=O)N[C@@H](CCCCN)C(=O)N[C@@H](CCCN=C(N)N)C(=O)NCC(=O)N[C@H](C(=O)N[C@H](C(=O)N[C@@H](CCCCN)C(=O)N[C@H](C(=O)N[C@H](C(=O)N[C@@H](CCCCN)C(=O)N[C@@H](CCCN=C(N)N)C(N)=O)[C@@H](C)CC)[C@@H](C)CC)[C@@H](C)CC)[C@@H](C)CC [GIKRGIIKIIKR],> 128,,,≥ 32,,,,
CC[C@H](C)[C@H](NC(=O)[C@H](Cc1cnc[nH]1)NC(=O)[C@H](CCCCN)NC(=O)[C@H](CC(C)C)NC(=O)[C@H](CC(C)C)NC(=O)[C@H](CO)NC(=O)[C@H](CCSC)NC(=O)[C@H](C)NC(=O)[C@H](CCCCN)NC(=O)CN)C(=O)N[C@@H](CC(C)C)C(=O)N[C@@H](CCCCN)C(N)=O [GKAMSLLKHILK],,,9.3,,≥ 40,> 100,> 100,
CC[C@H](C)[C@H](NC(=O)[C@H](CCC(N)=O)NC(=O)[C@H](CCCCN)NC(=O)[C@H](CC(C)C)NC(=O)[C@H](CC(C)C)NC(=O)[C@H](CO)NC(=O)[C@H](CCSC)NC(=O)[C@H](Cc1c[nH]c2ccccc12)NC(=O)[C@H](CCCCN)NC(=O)CN)C(=O)N[C@@H](CC(C)C)C(=O)N[C@@H](CCCCN)C(N)=O [GKWMSLLKQILK],,,1.8,,2.5,50,10.8,
CC[C@H](C)[C@H](NC(=O)CNC(=O)[C@H](CCCN=C(N)N)NC(=O)[C@H](Cc1ccc(O)cc1)NC(=O)[C@@H](NC(=O)[C@@H](NC(=O)[C@H](CCCN=C(N)N)NC(=O)[C@H](Cc1ccccc1)NC(=O)[C@@H](NC(=O)[C@H](Cc1c[nH]c2ccccc12)NC(=O)[C@H](Cc1c[nH]c2ccccc12)NC(=O)[C@@H](N)CCCCN)C(C)C)C(C)C)C(C)C)C(=O)N[C@H](C(=O)N[C@@H](Cc1ccc(O)cc1)C(=O)N[C@@H](CCCN=C(N)N)C(=O)N[C@@H](CCCN=C(N)N)C(=O)N[C@H](C(=O)N[C@@H](CCCN=C(N)N)C(=O)N[C@@H](Cc1c[nH]c2ccccc12)C(=O)N[C@@H](CCCCN)C(=O)O)C(C)C)C(C)C [KWWVFRVVYRGIVYRRVRWK],,,,,,,,MIC [7]: 12.5 µM
CC[C@H](C)[C@H](NC(=O)CNC(=O)[C@@H](N)CCSC)C(=O)N[C@H](C(=O)N[C@@H](C)C(=O)NCC(=O)N[C@H](C(=O)N[C@H](C(=O)N[C@@H](CCCCN)C(=O)N[C@@H](Cc1ccccc1)C(=O)N[C@H](C(=O)N[C@@H](CCCCN)C(=O)NCC(=O)N[C@@H](CC(C)C)C(=O)N[C@H](C(=O)N[C@@H](CCC(=O)O)C(=O)N[C@@H](CCCCN)C(=O)N[C@@H](Cc1ccccc1)C(=O)N[C@H](C(=O)NCC(=O)N[C@@H](CCCCN)C(=O)O)[C@@H](C)O)[C@@H](C)CC)[C@@H](C)CC)[C@@H](C)CC)[C@@H](C)CC)[C@@H](C)CC [MGIIAGIIKFIKGLIEKFTGK],> 128,,,≥ 128,,,,
CC[C@H](C)[C@H](NC(=O)[C@H](CCCCN)NC(=O)[C@H](CCCCN)NC(=O)[C@H](Cc1c[nH]c2ccccc12)NC(=O)[C@@H](NC(=O)[C@@H](N)CC(N)=O)C(C)C)C(=O)N[C@@H](CC(C)C)C(=O)NCC(=O)N[C@@H](CCCCN)C(=O)N[C@H](C(=O)N[C@H](C(=O)N[C@@H](CCCCN)C(=O)N[C@H](C(=O)N[C@H](C(=O)N[C@@H](CCCCN)C(N)=O)C(C)C)C(C)C)[C@@H](C)CC)[C@@H](C)CC [NVWKKILGKIIKVVK],,,0.7,,1.4,23.1,9,

# The next lines start with results.
MIC [1] [µM],MIC [4] [µM],MIC (Bacillus subtilis 168) [µM],MIC [6] [µM],MIC (Escherichia coli B) [µM],MIC (Pseudomonas aeruginosa) [µM],MIC (Staphylococcus aureus) [µM],Compound,further results
≥ 32,≥ 128,30,16,,,,CC[C@H](C)[C@H](NC(=O)[C@H](CCCCN)NC(=O)[C@H](CCCCN)NC(=O)[C@@H](NC(=O)[C@@H](NC(=O)[C@H](CCCCN)NC(=O)[C@H](CCCCN)NC(=O)[C@@H](NC(=O)[C@@H](NC(=O)CN)[C@@H](C)CC)[C@@H](C)CC)[C@@H](C)CC)[C@@H](C)CC)C(N)=O [GIIKKIIKKI],MIC [5]: ≥ 64 µM; MIC [7]: ≥ 125 µM; MIC [2]: ≥ 128 µM; MIC [8]: ≥ 64 µM
,,2.7,,20,100,130,CC[C@H](C)[C@H](NC(=O)[C@H](Cc1cnc[nH]1)NC(=O)[C@H](CCCCN)NC(=O)[C@H](CC(C)C)NC(=O)[C@H](C)NC(=O)[C@H](CO)NC(=O)[C@H](CCSC)NC(=O)[C@H](Cc1c[nH]c2ccccc12)NC(=O)[C@H](CCCCN)NC(=O)CN)C(=O)N[C@@H](CC(C)C)C(=O)N[C@@H](CCCCN)C(N)=O [GKWMSALKHILK],
,,1.3,,3.5,25,13.8,CSCC[C@H](NC(=O)[C@H](Cc1c[nH]c2ccccc12)NC(=O)[C@H](CCCCN)NC(=O)CN)C(=O)N[C@@H](CO)C(=O)N[C@@H](CC(C)C)C(=O)N[C@@H](CC(C)C)C(=O)N[C@@H](CCCCN)C(=O)N[C@@H](Cc1cnc[nH]1)C(=O)N[C@@H](Cc1c[nH]c2ccccc12)C(=O)N[C@@H](CC(C)C)C(=O)N[C@@H](CCCCN)C(N)=O [GKWMSLLKHWLK],
> 512,> 512,,≥ 512,,,,CC(C)C[C@H](NC(=O)[C@H](CC(C)C)NC(=O)[C@@H](NC(=O)[C@H](CCCCN)NC(=O)[C@H](C)NC(=O)[C@H](CCCN=C(N)N)NC(=O)[C@H](CCCCN)NC(=O)[C@H](C)NC(=O)[C@H](CC(C)C)NC(=O)CN)[C@@H](C)O)C(N)=O [GLAKRAKTLL],MIC [5]: > 512 µM; MIC [9]: > 512 µM; MIC [2]: > 512 µM; MIC [8]: > 512 µM; MIC [10]: > 512 µM
0.531,0.531,,,,2.13,,CC(C)C[C@H](NC(=O)[C@H](Cc1ccc(O)cc1)NC(=O)[C@H](CCCCN)NC(=O)[C@H](CC(C)C)NC(=O)[C@H](CC(C)C)NC(=O)[C@H](CCCCN)NC(=O)[C@H](CCCCN)NC(=O)[C@H](Cc1ccccc1)NC(=O)[C@H](CC(C)C)NC(=O)[C@H](CCCN=C(N)N)NC(=O)[C@@H](N)CCCCN)C(=O)N[C@@H](CCCN=C(N)N)C(=O)N[C@@H](CCCCN)C(=O)N[C@@H](Cc1ccccc1)C(=O)O [KRLFKKLLKYLRKF],MIC [5]: 1.06 µM; MIC (Acinetobacter baumannii): 1.06 µM; MIC [11]: 2.13 µM; MIC [8]: 1.06 µM
8,32,,8,,,,CC[C@H](C)[C@H](NC(=O)[C@H](CCCCN)NC(=O)[C@H](CCCCN)NC(=O)[C@H](C)NC(=O)[C@@H](NC(=O)[C@H](C)NC(=O)[C@H](CC(C)C)NC(=O)[C@H](C)NC(=O)[C@H](C)NC(=O)[C@H](CCCCN)NC(=O)[C@H](CC(C)C)NC(=O)[C@H](CC(N)=O)NC(=O)[C@@H](N)CC(C)C)C(C)C)C(=O)N[C@@H](CC(C)C)C(N)=O [LNLKAALAVAKKIL],MIC [2]: 16 µM; MIC [3]: 32 µM
,,1.1,,2.3,50,9.2,CC[C@H](C)[C@H](NC(=O)[C@H](Cc1cnc[nH]1)NC(=O)[C@H](CCCCN)NC(=O)[C@H](CC(C)C)NC(=O)[C@H](CC(C)C)NC(=O)[C@H](CO)NC(=O)[C@H](CCSC)NC(=O)[C@H](Cc1c[nH]c2ccccc12)NC(=O)[C@H](CCCCN)NC(=O)[C@@H](N)CO)C(=O)N[C@@H](CC(C)C)C(=O)N[C@@H](CCCCN)C(N)=O [SKWMSLLKHILK],
,,0.9,,5,100,> 100,CC[C@H](C)[C@H](NC(=O)[C@H](CCCCN)NC(=O)[C@@H]1CCCN1C(=O)[C@H](CC(C)C)NC(=O)[C@@H](NC(=O)[C@H](CCCCN)NC(=O)[C@H](CCCCN)NC(=O)[C@H](Cc1c[nH]c2ccccc12)NC(=O)[C@H](CC(N)=O)NC(=O)[C@@H](N)C(C)C)C(C)C)C(=O)N[C@H](C(=O)N[C@@H](CCCCN)C(=O)N[C@H](C(=O)N[C@@H](C)C(=O)N[C@@H](CCCCN)C(N)=O)C(C)C)[C@@H](C)CC [VNWKKVLPKIIKVAK],
